# In ChEMBL document CHEMBL1268971, “4,5-Dihydro-1H-pyrazolo[4,3-h]quinazolines as potent and selective Polo-like kinase 1 (PLK1) inhibitors” (Bioorg Med Chem Lett, 2010):
# Key:
# [1] = Solubility of the compound at pH 7; assay type: physicochemical; settings: buffer
# [2] = target: Cyclin-dependent kinase 2/cyclin A (Homo sapiens, UniProt P24941); test: Inhibition of CDK2/Cyclin A; assay type: protein-complex assay
# A2780 = test: cells; settings: Homo sapiens, A2780, 72 h
# [3] = target: Serine/threonine-protein kinase PLK1 (Homo sapiens, UniProt P53350)
# [4] = target: Serine/threonine-protein kinase PLK2 (Homo sapiens, UniProt Q9NYY3); test: Inhibition of PLK2
# [5] = target: Serine/threonine-protein kinase PLK3 (Homo sapiens, UniProt Q9H4B4); test: Inhibition of PLK3
# [6] = target: ALK tyrosine kinase receptor (Homo sapiens, UniProt Q9UM73); test: Inhibition of ALK
# [7] = Solubility of the compound at 105 Tween 80; assay type: physicochemical
# [8] = Permeability of the compound by PAMPA; assay type: ADME
# [9] = target: T1, Receptor-type tyrosine-protein kinase FLT3 (Homo sapiens, UniProt P36888); test: Inhibition of FLT3
# T1 sequence (P36888 whole entry): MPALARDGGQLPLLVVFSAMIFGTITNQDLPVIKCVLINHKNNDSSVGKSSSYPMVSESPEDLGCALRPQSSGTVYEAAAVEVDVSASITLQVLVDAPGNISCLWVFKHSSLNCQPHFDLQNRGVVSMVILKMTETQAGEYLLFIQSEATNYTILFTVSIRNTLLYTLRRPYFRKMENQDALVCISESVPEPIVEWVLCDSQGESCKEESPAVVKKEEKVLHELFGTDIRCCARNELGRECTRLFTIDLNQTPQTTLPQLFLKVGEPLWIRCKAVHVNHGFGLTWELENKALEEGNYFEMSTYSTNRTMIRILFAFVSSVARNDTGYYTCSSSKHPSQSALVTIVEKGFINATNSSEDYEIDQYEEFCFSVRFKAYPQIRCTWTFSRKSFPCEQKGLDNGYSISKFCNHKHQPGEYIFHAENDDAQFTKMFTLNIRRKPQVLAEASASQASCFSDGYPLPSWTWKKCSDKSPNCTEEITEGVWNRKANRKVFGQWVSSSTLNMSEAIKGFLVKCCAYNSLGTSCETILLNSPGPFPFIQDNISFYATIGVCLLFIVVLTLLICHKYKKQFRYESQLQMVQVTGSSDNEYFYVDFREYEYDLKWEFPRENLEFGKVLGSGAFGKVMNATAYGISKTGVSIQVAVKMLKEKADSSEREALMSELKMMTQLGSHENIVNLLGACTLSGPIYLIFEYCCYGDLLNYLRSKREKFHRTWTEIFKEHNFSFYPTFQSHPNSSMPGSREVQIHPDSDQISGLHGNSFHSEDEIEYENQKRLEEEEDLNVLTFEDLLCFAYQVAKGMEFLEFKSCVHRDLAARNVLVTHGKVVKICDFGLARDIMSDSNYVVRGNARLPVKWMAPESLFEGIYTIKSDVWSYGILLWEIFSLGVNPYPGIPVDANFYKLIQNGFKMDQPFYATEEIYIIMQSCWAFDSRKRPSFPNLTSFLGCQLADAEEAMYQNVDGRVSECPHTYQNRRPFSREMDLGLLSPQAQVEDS
# [10] = Intrinsic clearance in human liver microsomes; assay type: ADME, Microsome
# [11] = Clearance in CD1 mouse at 10 mg/kg, iv administered as single dose by LC/MS/MS analysis; assay type: ADME, organism-based; set-up: dose 10 mg/kg, route intravenous; settings: in vivo
# [12] = Inhibition of PDGFR
# [13] = target: Serine/threonine-protein kinase Nek6 (Homo sapiens, UniProt Q9HC98); test: Inhibition of NEK6
# [14] = Inhibition of casein kinase 2
# [15] = Volume of distribution at steady state in CD1 mouse at 10 mg/kg, iv administered as single dose by LC/MS/MS analysis; assay type: ADME, organism-based; set-up: dose 10 mg/kg, route intravenous; settings: in vivo, read-out: Vdss
# [16] = Terminal half life in CD1 mouse at 10 mg/kg, iv administered as single dose by LC/MS/MS analysis; assay type: ADME, organism-based; set-up: dose 10 mg/kg, route intravenous; settings: in vivo, read-out: beta t1/2 (converted)
# [17] = Oral bioavailability in CD1 mouse at 10 mg/kg administered as single dose by LC/MS/MS analysis; assay type: ADME, organism-based; settings: in vivo
# [18] = AUC (0 to infinity) in CD1 mouse at 10 mg/kg, iv administered as single dose by LC/MS/MS analysis; assay type: ADME, organism-based; set-up: time infinity, dose 10 mg/kg, route intravenous; settings: plasma
# [19] = AUC (0 to infinity) in CD1 mouse at 10 mg/kg, po administered as single dose by LC/MS/MS analysis; assay type: ADME, organism-based; set-up: time infinity, dose 10 mg/kg, route oral; settings: plasma
# [20] = Cmax in CD1 mouse at 10 mg/kg, po administered as single dose by LC/MS/MS analysis; assay type: ADME, organism-based; set-up: dose 10 mg/kg, route oral; settings: in vivo
# Sequence of Serine/threonine-protein kinase PLK3 (Q9H4B4 whole entry): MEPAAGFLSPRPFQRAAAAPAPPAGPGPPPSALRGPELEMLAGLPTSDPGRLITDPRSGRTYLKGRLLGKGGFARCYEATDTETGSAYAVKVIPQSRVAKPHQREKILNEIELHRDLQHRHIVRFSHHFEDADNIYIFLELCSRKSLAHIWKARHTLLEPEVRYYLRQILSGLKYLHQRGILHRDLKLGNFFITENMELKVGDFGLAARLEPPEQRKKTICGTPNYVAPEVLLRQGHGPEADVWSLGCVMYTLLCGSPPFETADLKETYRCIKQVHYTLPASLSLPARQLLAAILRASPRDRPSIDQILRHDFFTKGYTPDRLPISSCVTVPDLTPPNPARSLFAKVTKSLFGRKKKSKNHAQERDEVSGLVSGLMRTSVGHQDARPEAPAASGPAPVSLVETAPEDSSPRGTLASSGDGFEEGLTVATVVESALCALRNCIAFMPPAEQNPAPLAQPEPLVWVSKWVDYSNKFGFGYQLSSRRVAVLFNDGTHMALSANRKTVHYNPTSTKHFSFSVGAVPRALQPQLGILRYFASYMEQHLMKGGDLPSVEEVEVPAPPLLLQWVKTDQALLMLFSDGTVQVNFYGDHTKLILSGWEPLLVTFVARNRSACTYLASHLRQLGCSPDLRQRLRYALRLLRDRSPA
# Sequence of Serine/threonine-protein kinase PLK1 (P53350 whole entry): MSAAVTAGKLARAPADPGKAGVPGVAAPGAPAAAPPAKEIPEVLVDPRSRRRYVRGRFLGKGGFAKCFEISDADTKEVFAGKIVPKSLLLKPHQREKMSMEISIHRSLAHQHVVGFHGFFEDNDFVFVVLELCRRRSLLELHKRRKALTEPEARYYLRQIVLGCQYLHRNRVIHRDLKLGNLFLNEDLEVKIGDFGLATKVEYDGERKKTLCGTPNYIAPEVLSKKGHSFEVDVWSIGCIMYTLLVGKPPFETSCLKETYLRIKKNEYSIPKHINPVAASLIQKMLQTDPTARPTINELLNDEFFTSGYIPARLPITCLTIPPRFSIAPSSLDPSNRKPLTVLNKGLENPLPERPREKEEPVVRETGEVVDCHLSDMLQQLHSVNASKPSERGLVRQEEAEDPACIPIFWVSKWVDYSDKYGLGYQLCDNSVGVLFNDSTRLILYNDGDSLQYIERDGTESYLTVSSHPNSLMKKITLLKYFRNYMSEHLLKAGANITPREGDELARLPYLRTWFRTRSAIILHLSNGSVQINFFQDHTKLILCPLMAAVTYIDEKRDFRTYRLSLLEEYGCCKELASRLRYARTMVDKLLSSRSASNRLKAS
# Sequence of Serine/threonine-protein kinase PLK2 (Q9NYY3 whole entry): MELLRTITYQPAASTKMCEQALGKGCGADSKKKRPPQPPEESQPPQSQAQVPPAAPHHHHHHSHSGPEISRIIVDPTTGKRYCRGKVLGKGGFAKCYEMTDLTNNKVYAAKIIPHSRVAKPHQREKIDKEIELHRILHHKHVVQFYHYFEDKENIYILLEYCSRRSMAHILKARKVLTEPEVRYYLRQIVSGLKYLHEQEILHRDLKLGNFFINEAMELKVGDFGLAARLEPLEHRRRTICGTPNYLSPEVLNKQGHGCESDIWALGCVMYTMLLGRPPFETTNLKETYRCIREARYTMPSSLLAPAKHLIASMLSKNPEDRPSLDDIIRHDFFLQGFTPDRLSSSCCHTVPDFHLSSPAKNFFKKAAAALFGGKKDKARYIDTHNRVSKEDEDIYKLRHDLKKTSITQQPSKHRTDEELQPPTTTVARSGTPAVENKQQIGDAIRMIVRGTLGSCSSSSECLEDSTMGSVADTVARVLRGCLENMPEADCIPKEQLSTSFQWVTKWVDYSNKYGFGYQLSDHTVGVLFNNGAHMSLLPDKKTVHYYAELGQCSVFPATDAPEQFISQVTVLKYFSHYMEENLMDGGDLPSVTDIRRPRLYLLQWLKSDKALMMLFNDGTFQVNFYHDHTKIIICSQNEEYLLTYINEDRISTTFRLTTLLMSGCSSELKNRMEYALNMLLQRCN
# Sequence of ALK tyrosine kinase receptor (Q9UM73 whole entry): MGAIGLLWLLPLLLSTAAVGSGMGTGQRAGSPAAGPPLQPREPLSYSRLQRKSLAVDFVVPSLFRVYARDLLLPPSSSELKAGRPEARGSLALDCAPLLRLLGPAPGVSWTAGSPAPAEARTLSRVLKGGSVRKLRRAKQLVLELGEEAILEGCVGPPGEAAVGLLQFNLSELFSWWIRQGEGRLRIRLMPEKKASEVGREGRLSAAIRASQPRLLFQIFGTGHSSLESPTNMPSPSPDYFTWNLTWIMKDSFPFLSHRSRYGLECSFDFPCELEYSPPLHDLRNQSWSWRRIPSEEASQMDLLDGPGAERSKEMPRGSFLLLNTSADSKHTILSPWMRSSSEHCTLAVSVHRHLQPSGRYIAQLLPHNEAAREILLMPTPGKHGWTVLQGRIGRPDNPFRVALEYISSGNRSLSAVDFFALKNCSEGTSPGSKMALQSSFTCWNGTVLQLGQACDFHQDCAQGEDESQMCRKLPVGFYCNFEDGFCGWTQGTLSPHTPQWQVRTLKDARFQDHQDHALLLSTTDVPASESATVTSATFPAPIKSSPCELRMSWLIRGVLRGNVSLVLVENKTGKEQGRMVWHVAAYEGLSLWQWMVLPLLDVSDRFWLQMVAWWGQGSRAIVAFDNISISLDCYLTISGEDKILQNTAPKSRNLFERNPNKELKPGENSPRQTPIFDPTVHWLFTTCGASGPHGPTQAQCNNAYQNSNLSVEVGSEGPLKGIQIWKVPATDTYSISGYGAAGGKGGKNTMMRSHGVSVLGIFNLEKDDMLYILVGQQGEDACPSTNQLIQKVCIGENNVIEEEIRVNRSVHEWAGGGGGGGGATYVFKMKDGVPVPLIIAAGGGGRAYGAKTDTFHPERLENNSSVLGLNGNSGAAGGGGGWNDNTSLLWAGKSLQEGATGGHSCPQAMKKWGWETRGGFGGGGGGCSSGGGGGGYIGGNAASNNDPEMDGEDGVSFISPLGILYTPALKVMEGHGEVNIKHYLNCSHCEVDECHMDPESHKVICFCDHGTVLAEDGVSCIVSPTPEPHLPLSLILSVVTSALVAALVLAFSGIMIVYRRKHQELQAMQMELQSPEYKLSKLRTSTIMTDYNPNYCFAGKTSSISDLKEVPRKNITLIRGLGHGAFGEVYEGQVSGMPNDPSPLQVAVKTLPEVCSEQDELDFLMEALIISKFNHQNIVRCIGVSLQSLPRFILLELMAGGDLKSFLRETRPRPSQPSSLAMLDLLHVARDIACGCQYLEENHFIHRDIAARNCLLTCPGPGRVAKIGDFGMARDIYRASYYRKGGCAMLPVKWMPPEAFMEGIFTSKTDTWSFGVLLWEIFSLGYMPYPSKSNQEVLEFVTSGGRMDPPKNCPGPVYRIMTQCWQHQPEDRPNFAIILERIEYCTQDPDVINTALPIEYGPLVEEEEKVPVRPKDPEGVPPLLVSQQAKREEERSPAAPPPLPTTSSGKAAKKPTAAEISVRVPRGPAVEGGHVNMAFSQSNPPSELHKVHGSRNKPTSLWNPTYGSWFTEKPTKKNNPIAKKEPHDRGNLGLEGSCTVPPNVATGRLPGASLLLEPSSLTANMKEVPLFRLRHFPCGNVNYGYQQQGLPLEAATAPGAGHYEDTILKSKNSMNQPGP
# Sequence of Serine/threonine-protein kinase Nek6 (Q9HC98 whole entry): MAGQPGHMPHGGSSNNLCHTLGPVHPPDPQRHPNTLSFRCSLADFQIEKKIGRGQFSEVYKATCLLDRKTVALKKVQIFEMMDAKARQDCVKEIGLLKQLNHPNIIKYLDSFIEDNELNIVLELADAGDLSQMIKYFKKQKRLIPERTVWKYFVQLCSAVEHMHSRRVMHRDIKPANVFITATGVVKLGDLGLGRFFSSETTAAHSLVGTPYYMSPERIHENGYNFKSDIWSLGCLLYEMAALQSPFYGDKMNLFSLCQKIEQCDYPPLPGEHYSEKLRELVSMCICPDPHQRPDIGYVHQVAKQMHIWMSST
SMILES,solubility [1] [µM],IC50 [2] [µM],IC50 (A2780) [µM],IC50 [3] [µM],IC50 [4] [µM],IC50 [5] [µM],further results
CN1CCN(c2ccc(OC(F)(F)F)c(Nc3ncc4c(n3)-c3c(c(C(N)=O)nn3C(c3ccccc3)(c3ccccc3)c3ccccc3)CC4)c2)CC1,< 1,> 10,2.1,> 10,,,
Cn1nc(C(N)=O)c2c1-c1nc(Nc3cc(N4CCN(C(=O)N5CCNCC5)CC4)ccc3OC(F)(F)F)ncc1CC2,85,0.622,0.538,,0.19,,
CCn1nc(C(N)=O)c2c1-c1nc(Nc3cc(N4CCN(C)CC4)ccc3OC(F)(F)F)ncc1CC2,21,> 10,0.011,0.006,> 10,> 10,
CN1CCN(c2ccc(OC(F)(F)F)c(Nc3ncc4c(n3)-c3[nH]nc(C(N)=O)c3CC4)c2)CC1,12,> 10,0.093,0.004,> 10,> 10,
CN1CCN(c2ccc(OC(F)(F)F)c(Nc3ncc4c(n3)-c3c(c(C(N)=O)nn3CCF)CC4)c2)CC1,18,> 10,0.014,0.004,> 10,> 10,IC50 [6]: > 10 µM; solubility [7]: 2.1 mg/mL; Papp [8]: 500 nm/s; IC50 [9]: 0.216 µM; CLint scaled [10]: 3.37 L/h/kg; clearance [11]: 2.42 L/h/kg; IC50 [12]: > 10 µM; IC50 [13]: > 10 µM; IC50 [14]: 0.134 µM; Vd [15]: 1.53 L/kg; half-life [16]: 44.4 min; bioavailability [17]: 2%; AUC(0-inf) [18]: 10.2 µM·h; AUC(0-inf) [19]: 0.192 µM·h; Cmax [20]: 0.26 µM
Cn1nc(C(N)=O)c2c1-c1nc(Nc3cc(N4CCNCC4)ccc3OC(F)(F)F)ncc1CC2,114,> 10,0.03,,> 10,1.43,IC50 [6]: > 10 µM; solubility [7]: 1.1 mg/mL; Papp [8]: 72.2 nm/s; IC50 [9]: 0.194 µM; CLint scaled [10]: 0.414 L/h/kg; IC50 [12]: > 10 µM; IC50 [13]: 0.595 µM; IC50 [14]: 0.059 µM
Cn1nc(C(N)=O)c2c1-c1nc(Nc3cc([N+]4([O-])CC[N+](C)([O-])CC4)ccc3OC(F)(F)F)ncc1CC2 (configuration not stated),48,> 10,> 10,2.68,> 10,> 10,
Cn1nc(C(N)=O)c2c1-c1nc(Nc3cc(NC4CCNC4)ccc3OC(F)(F)F)ncc1CC2 (configuration not stated),171,0.414,2.22,,0.762,,
CN1CCCN(c2ccc(OC(F)(F)F)c(Nc3ncc4c(n3)-c3c(c(C(N)=O)nn3C)CC4)c2)CC1,95,> 10,0.941,0.025,> 10,> 10,
CN1CCN(c2ccc(OC(F)(F)F)c(Nc3ncc4c(n3)-c3c(c(C(N)=O)nn3CCCl)CC4)c2)CC1,9,2.01,0.031,,> 10,> 10,
Cn1nc(C(N)=O)c2c1-c1nc(Nc3cc(N4CCC(N5CCCC5)CC4)ccc3OC(F)(F)F)ncc1CC2,133,> 10,0.583,0.033,> 10,> 10,
CN1CCCC1CCNc1ccc(OC(F)(F)F)c(Nc2ncc3c(n2)-c2c(c(C(N)=O)nn2C)CC3)c1 (configuration not stated),157,0.969,2.56,,0.429,,
CN1CCC(Nc2ccc(OC(F)(F)F)c(Nc3ncc4c(n3)-c3c(c(C(N)=O)nn3C)CC4)c2)CC1,> 225,1.02,1.09,,3.42,,
Cn1nc(C(N)=O)c2c1-c1nc(Nc3cc(N4CC[N+](C)([O-])CC4)ccc3OC(F)(F)F)ncc1CC2,> 225,> 10,0.782,,> 10,,
CCN1CCN(c2ccc(OC(F)(F)F)c(Nc3ncc4c(n3)-c3c(c(C(N)=O)nn3C)CC4)c2)CC1,33,> 10,0.034,,3.39,,
Cn1nc(C(N)=O)c2c1-c1nc(Nc3ccccc3OC(F)(F)F)ncc1CC2,< 1,1.76,6.41,0.117,0.206,0.032,
Cn1nc(C(N)=O)c2c1-c1nc(Nc3cc(N)ccc3OC(F)(F)F)ncc1CC2,31,1.18,1.07,,1.28,,
COCCn1nc(C(N)=O)c2c1-c1nc(Nc3cc(N4CCN(C)CC4)ccc3OC(F)(F)F)ncc1CC2,136,> 10,0.075,0.015,> 10,> 10,
CN1C(C)(C)CC(Nc2ccc(OC(F)(F)F)c(Nc3ncc4c(n3)-c3c(c(C(N)=O)nn3C)CC4)c2)CC1(C)C,147,3.02,1.75,0.964,> 10,> 10,
Cn1nc(C(N)=O)c2c1-c1nc(Nc3cc(N4CCN(C(=O)OC(C)(C)C)CC4)ccc3OC(F)(F)F)ncc1CC2,,1.13,1.29,,0.768,,
